ChEMBL document CHEMBL1144926, “Structure-activity relationships of dynorphin a analogues modified in the address sequence” (J Med Chem, 2003)
Non-standard residues stand in square brackets, D forms with d. Residues, ends and D or L forms follow the SMILES beside them. Nle = CCCC[C@H](N)C(=O)O

Experiments:
[1] = target: T1, Opioid receptors; mu/kappa/delta (Homo sapiens) (UniProt P41145+P41143+P35372); experiment: Binding affinity towards human kappa,mu,delta receptors was calculated as the ratio; 1/360/360; assay type: protein assay
[2] = target: T1, Opioid receptors; mu/kappa/delta (Homo sapiens); experiment: Binding affinity towards human kappa,mu,delta receptors was calculated as the ratio; 1/3.4/2.3; assay type: protein assay
Mu-type opioid receptor = Mu-type opioid receptor (Homo sapiens, UniProt P35372); experiment: biochemical; assay type: cell-based, CHO
[3] = target: Delta-type opioid receptor (Homo sapiens, UniProt P41143); experiment: In vitro binding affinity to human Opioid receptor delta 1 on CHO cell membranes using [3H]diprenorphine displacement.
[4] = target: T2, Kappa-type opioid receptor (Homo sapiens, UniProt P41145); experiment: biochemical; assay type: cell-based, CHO
[5] = target: T2, Kappa-type opioid receptor; settings: 10 uM
[6] = target: T1, Opioid receptors; mu/kappa/delta (Homo sapiens); experiment: Binding affinity towards human kappa,mu,delta receptors was calculated as the ratio; 1/620/1300; assay type: protein assay
[7] = target: Mu-type opioid receptor (Cavia porcellus) (UniProt P97266); settings: Ileum
[8] = target: T2, Kappa-type opioid receptor; assay type: functional
[9] = target: T2, Kappa-type opioid receptor; experiment: Antagonistic activity in the Opioid receptor kappa 1 -mediated [35S]GTP-gamma-S, binding assay against 50 nM U-50,488; assay type: functional
[10] = target: T1, Opioid receptors; mu/kappa/delta (Homo sapiens); experiment: Binding affinity towards human kappa,mu,delta receptors was calculated as the ratio; 1/34/69; assay type: protein assay
[11] = target: T2, Kappa-type opioid receptor; experiment: Antagonistic activity in theOpioid receptor kappa 1 -mediated [35S]GTP-gamma-S, binding assay against 50 nM U-50,488; assay type: functional
[12] = target: T1, Opioid receptors; mu/kappa/delta (Homo sapiens); experiment: Binding affinity towards human kappa,mu,delta receptors was calculated as the ratio; 1/560/1200; assay type: protein assay

T1 sequence (P35372 whole entry, looked up): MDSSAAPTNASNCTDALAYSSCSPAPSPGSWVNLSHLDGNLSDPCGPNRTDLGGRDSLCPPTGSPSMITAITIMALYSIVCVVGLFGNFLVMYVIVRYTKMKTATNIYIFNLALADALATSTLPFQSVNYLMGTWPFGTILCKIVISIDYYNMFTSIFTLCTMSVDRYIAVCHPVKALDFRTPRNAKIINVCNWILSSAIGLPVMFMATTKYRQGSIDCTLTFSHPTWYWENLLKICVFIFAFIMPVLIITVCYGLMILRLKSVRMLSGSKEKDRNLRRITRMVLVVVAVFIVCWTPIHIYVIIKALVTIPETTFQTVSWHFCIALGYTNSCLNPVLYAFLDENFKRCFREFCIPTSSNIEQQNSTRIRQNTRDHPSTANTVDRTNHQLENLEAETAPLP
T1 sequence (P41143 whole entry, looked up): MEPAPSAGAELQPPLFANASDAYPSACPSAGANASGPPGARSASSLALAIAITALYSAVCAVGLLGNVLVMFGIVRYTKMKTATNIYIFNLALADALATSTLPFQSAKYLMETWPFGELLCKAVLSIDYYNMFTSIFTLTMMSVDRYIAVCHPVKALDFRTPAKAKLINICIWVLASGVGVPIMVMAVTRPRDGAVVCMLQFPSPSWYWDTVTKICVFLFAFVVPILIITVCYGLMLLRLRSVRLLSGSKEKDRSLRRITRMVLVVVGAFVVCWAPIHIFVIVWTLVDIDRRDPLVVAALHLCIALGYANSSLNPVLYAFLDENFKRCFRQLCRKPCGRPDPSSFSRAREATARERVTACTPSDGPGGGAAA
T1 sequence (P41145 whole entry, looked up): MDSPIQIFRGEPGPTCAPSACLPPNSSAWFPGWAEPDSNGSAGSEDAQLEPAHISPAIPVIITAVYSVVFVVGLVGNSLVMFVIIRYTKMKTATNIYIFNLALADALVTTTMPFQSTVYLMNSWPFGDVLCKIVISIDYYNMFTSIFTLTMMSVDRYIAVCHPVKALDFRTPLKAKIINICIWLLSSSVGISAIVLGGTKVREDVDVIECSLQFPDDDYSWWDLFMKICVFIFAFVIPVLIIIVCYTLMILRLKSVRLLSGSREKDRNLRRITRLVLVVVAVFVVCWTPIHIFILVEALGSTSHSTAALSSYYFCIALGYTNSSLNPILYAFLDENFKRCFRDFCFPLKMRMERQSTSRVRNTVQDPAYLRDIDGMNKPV
Mu-type opioid receptor, sequence (P35372 whole entry): as the sequence (P35372 whole entry, looked up) above
Delta-type opioid receptor, sequence (P41143 whole entry): as the sequence (P41143 whole entry, looked up) above
T2 sequence (P41145 whole entry): as the sequence (P41145 whole entry, looked up) above
Mu-type opioid receptor (Cavia porcellus), sequence (P97266 whole entry): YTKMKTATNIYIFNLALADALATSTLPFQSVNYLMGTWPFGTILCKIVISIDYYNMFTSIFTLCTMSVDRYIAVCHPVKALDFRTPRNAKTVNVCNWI

Row | Compound | Ki (Mu-type opioid receptor) | Ki [3] | Ki [4] | further results
1 | CC[C@H](C)[C@H](NC(=O)[C@H](CCCN=C(N)N)NC(=O)[C@H](CCCN=C(N)N)NC(=O)[C@H](CC(C)C)NC(=O)[C@H](Cc1ccccc1)NC(=O)[C@@H]1CCCN1C(=O)CNC(=O)[C@@H](N)Cc1ccc(O)cc1)C(=O)N[C@@H](CCCN=C(N)N)C(=O)N1CCC[C@@H]1C(=O)N[C@@H](CCCCN)C(=O)O |  |  |  | Ki ratio [1]: kappa/mu/delta
2 | H-YGPFLR-NH2 [listing 1 of 2 here] |  |  |  | Ki ratio [2]: kappa/delta/mu
3 | CC(C)C[C@H](NC(=O)[C@H](Cc1ccccc1)NC(=O)CNC(=O)CNC(=O)[C@@H](N)Cc1ccc(O)cc1)C(=O)N[C@@H](CCCNC(=N)N)C(=O)N[C@@H](CCCNC(=N)N)C(=O)O | 38 nM | 9.7 nM |  | 
4 | CC[C@H](C)[C@H](NC(=O)[C@H](CCCNC(=N)N)NC(=O)[C@H](CCCNC(=N)N)NC(=O)[C@H](CC(C)C)NC(=O)[C@H](Cc1ccccc1)NC(=O)CNC(=O)CNC(=O)[C@@H](N)Cc1ccc(O)cc1)C(=O)N[C@@H](CCCNC(=N)N)C(=O)N1CCC[C@H]1C(=O)N[C@@H](CCCCN)C(=O)N[C@@H](CC(C)C)C(=O)N[C@@H](CCCCN)C(=O)O |  |  | 0.23 nM | 
5 | H-YGPFLRR-NH2 | 12600 nM | 15100 nM | 60.3 nM | 
6 | CC[C@H](C)[C@H](NC(=O)[C@H](CCCN=C(N)N)NC(=O)[C@H](CCCN=C(N)N)NC(=O)[C@H](CC(C)C)NC(=O)[C@H](Cc1ccccc1)NC(=O)CNC(=O)CNC(=O)[C@@H](N)Cc1ccc(O)cc1)C(=O)N[C@@H](CCCN=C(N)N)C(=O)N1CCC[C@H]1C(=O)N[C@@H](CCCCN)C(N)=O |  |  | 0.059 nM | Max stimulation [5]: 73%
7 | CC[C@H](C)[C@H](NC(=O)[C@H](CCCN=C(N)N)NC(=O)[C@H](CCCN=C(N)N)NC(=O)[C@H](CC(C)C)NC(=O)[C@H](Cc1ccccc1)NC(=O)[C@@H]1CCCN1C(=O)CNC(=O)[C@@H](N)Cc1ccc(O)cc1)C(=O)N[C@@H](CCCN=C(N)N)C(=O)N1CCC[C@@H]1C(N)=O |  |  |  | Ki ratio [6]: kappa/mu/delta
8 | CC(C)C[C@H](NC(=O)[C@H](Cc1ccccc1)NC(=O)[C@@H]1CCCN1C(=O)CNC(=O)[C@@H](N)Cc1ccc(O)cc1)C(=O)N[C@@H](CCCN=C(N)N)C(=O)N[C@@H](CCCN=C(N)N)C(=O)N[C@@H](CCCN=C(N)N)C(=O)N[C@@H](CCCN=C(N)N)C(=O)N1CCC[C@@H]1C(=O)N[C@@H](CCCCN)C(N)=O |  |  |  | Ke [7]: 280 nM
9 | H-YGPFL-NH2 | 15500 nM | 18600 nM | > 10000 nM | 
10 | Oc1ccc2c3c1O[C@H]1c4[nH]c5c(c4C[C@@]4(O)[C@@H](C2)N(CC2CC2)CC[C@]314)C[C@@]1(O)[C@H]2Cc3ccc(O)c4c3[C@@]1(CCN2CC1CC1)[C@H]5O4 |  |  |  | Ke [7]: 0.572 nM
11 | CC[C@H](C)[C@H](NC(=O)[C@H](CCCNC(=N)N)NC(=O)[C@H](CCCNC(=N)N)NC(=O)[C@H](CC(C)C)NC(=O)[C@H](Cc1ccccc1)NC(=O)[C@@H]1CCCN1C(=O)CNC(=O)[C@@H](N)Cc1ccc(O)cc1)C(=O)N[C@@H](CCCNC(=N)N)C(=O)N[C@@H](CCCNC(=N)N)C(N)=O |  |  |  | IC50 [8]: 1260 nM; Ki ([4]; cho): 3.39 nM; Ki (Mu-type opioid receptor; cho): 2340 nM; Ki ([3]; cho): 6030 nM
12 | CC[C@H](C)[C@H](NC(=O)[C@H](CCCN=C(N)N)NC(=O)[C@H](CCCN=C(N)N)NC(=O)[C@H](CC(C)C)NC(=O)[C@H](Cc1ccccc1)NC(=O)[C@@H]1CCCN1C(=O)CNC(=O)[C@@H](N)Cc1ccc(O)cc1)C(=O)N[C@@H](CCCN=C(N)N)C(=O)N1CCC[C@H]1C(N)=O |  |  |  | Ki ([4]; cho): 10 nM; Ki (Mu-type opioid receptor; cho): 6200 nM; Ki ([3]; cho): 13500 nM
13 | CC[C@H](C)[C@H](NC(=O)[C@H](CCCNC(=N)N)NC(=O)[C@H](CCCNC(=N)N)NC(=O)[C@H](CC(C)C)NC(=O)[C@H](Cc1ccccc1)NC(=O)[C@@H]1CCCN1C(=O)CNC(=O)[C@@H](N)Cc1ccc(O)cc1)C(=O)N[C@@H](CCCNC(=N)N)C(=O)N[C@@H](CCCNC(=N)N)C(=O)N[C@@H](CCCCN)C(N)=O |  |  |  | IC50 [8]: 410 nM; Ki ([4]; cho): 1.2 nM; Ki (Mu-type opioid receptor; cho): 1660 nM; Ki ([3]; cho): 3230 nM
14 | H-YGPFLRRI-NH2 | 16200 nM | 16200 nM | 79.4 nM | 
15 | CC[C@H](C)[C@H](NC(=O)[C@H](CCCNC(=N)N)NC(=O)[C@H](CCCNC(=N)N)NC(=O)[C@H](CC(C)C)NC(=O)[C@H](Cc1ccccc1)NC(=O)CNC(=O)CNC(=O)[C@@H](N)Cc1ccc(O)cc1)C(=O)N[C@@H](CCCNC(=N)N)C(=O)N1CCC[C@H]1C(=O)O | 11.9 nM | 24 nM | 0.35 nM | 
16 | CC(C)C[C@H](NC(=O)[C@H](Cc1ccccc1)NC(=O)[C@@H]1CCCN1C(=O)CNC(=O)[C@@H](N)Cc1ccc(O)cc1)C(=O)N[C@@H](CCCN=C(N)N)C(=O)N[C@@H](CCCN=C(N)N)C(=O)N[C@@H](CCCN=C(N)N)C(N)=O | 3100 nM | > 100000 nM | 6.61 nM | IC50 [9]: 4000 nM
17 | CC(C)C[C@H](NC(=O)[C@H](Cc1ccccc1)NC(=O)[C@@H]1CCCN1C(=O)CNC(=O)[C@@H](N)Cc1ccc(O)cc1)C(=O)N[C@@H](CCCNC(=N)N)C(=O)N[C@@H](CCCNC(=N)N)C(=O)N[C@@H](CCCNC(=N)N)C(=O)N[C@@H](CCCNC(=N)N)C(=O)N1CCC[C@H]1C(=O)N[C@@H](CCCCN)C(N)=O |  |  |  | IC50 [8]: 340 nM; Ki ([4]; cho): 0.44 nM; Ki (Mu-type opioid receptor; cho): 2750 nM; Ki ([3]; cho): 6760 nM
18 | CC[C@H](C)[C@H](NC(=O)[C@H](CCCN=C(N)N)NC(=O)[C@H](CCCN=C(N)N)NC(=O)[C@H](CC(C)C)NC(=O)[C@H](Cc1ccccc1)NC(=O)CNC(=O)CNC(=O)[C@@H](N)Cc1ccc(O)cc1)C(=O)N[C@@H](CCCN=C(N)N)C(=O)N1CCC[C@@H]1C(=O)O |  |  |  | Ki ratio [10]: kappa/mu/delta
19 | H-YGGFLRRIR-OH | 23.8 nM | 9.8 nM | 2.5 nM | 
20 | CC[C@H](C)[C@H](NC(=O)[C@H](CCCN=C(N)N)NC(=O)[C@H](CCCN=C(N)N)NC(=O)[C@H](CC(C)C)NC(=O)[C@H](Cc1ccccc1)NC(=O)[C@@H]1CCCN1C(=O)CNC(=O)[C@@H](N)Cc1ccc(O)cc1)C(=O)N[C@@H](CCCN=C(N)N)C(=O)N1CCC[C@@H]1C(=O)N[C@@H](CCCCN)C(N)=O |  |  |  | Ke [7]: 494 nM
21 | CCCC[C@H](NC(=O)[C@H](CC(C)C)NC(=O)[C@H](Cc1ccccc1)NC(=O)[C@@H]1CCCN1C(=O)CNC(=O)[C@@H](N)Cc1ccc(O)cc1)C(=O)N[C@@H](CCCN=C(N)N)C(N)=O (H-YGPFL[Nle]R-NH2) | > 100000 nM | 14100 nM | > 100000 nM | 
22 | CC[C@H](C)[C@H](NC(=O)[C@H](CCCNC(=N)N)NC(=O)[C@H](CCCNC(=N)N)NC(=O)[C@H](CC(C)C)NC(=O)[C@H](Cc1ccccc1)NC(=O)[C@@H]1CCCN1C(=O)CNC(=O)[C@@H](N)Cc1ccc(O)cc1)C(=O)N[C@@H](CCCNC(=N)N)C(=O)N1CCC[C@H]1C(=O)N[C@@H](CCCCN)C(=O)O |  |  |  | Ki ([4]; cho): 41.7 nM; Ki (Mu-type opioid receptor; cho): 15100 nM; Ki ([3]; cho): 15000 nM
23 | CC[C@H](C)[C@H](NC(=O)[C@H](CCCN=C(N)N)NC(=O)[C@H](CCCN=C(N)N)NC(=O)[C@H](CC(C)C)NC(=O)[C@H](Cc1ccccc1)NC(=O)CNC(=O)CNC(=O)[C@@H](N)Cc1ccc(O)cc1)C(=O)O | 35.4 nM |  |  | 
24 | CC[C@H](C)[C@H](NC(=O)[C@H](CCCNC(=N)N)NC(=O)[C@H](CCCNC(=N)N)NC(=O)[C@H](CC(C)C)NC(=O)[C@H](Cc1ccccc1)NC(=O)[C@@H]1CCCN1C(=O)CNC(=O)[C@@H](N)Cc1ccc(O)cc1)C(=O)N[C@@H](CCCNC(=N)N)C(=O)N1CCC[C@H]1C(=O)N[C@@H](CCCCN)C(N)=O | 5250 nM |  | 2.4 nM | IC50 [11]: 440 nM
25 | H-YGPFLR-NH2 [listing 2 of 2 here] | 19500 nM | 12600 nM | 5600 nM | 
26 | H-YGGFLR-OH | 40.6 nM | 9.1 nM | 404 nM | 
27 | H-YGPFLRRIR-NH2 | 6030 nM | 13200 nM | 10.7 nM | Ki ratio [12]: kappa/delta/mu
